From the supplement of paper PMC10307832

Assays:
Assay in all cases: relative viability (nuclei count vs DMSO), 5 days (fraction); higher = more cells survive
[1] = compound: C1/C(=C\C2=CC=CS2)/C(=O)/C(=C/C3=CC=CS3)/C1 + CS(=O)(=O)N1CCN(Cc2cc3nc(-c4cccc5[nH]ncc45)nc(N4CCOCC4)c3s2)CC1 [Pictilisib] (partner 1 µM)
In short: (§1)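 Values are medians from duplicate plates. Each reflects relative viability, defined as the nuclei count of treated wells over that of vehicle wells. Lung cancer cell lines in 1536-well plates were pin-tool dosed one day after seeding with one drug alone or with a fixed anchor-drug dose plus five library-drug doses (not always all listed) in √10 steps, then fixed, stained and imaged at 4× after 5 days.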

[2] = compound: C[C@]12O[C@H](C[C@]1(O)CO)n1c3ccccc3c3c4c(c5c6ccccc6n2c5c31)CNC4=O [Lestaurtinib] + CC1(C)CCC(c2ccc(Cl)cc2)=C(CN2CCN(c3ccc(C(=O)NS(=O)(=O)c4ccc(N[C@H](CCN5CCOCC5)CSc5ccccc5)c(S(=O)(=O)C(F)(F)F)c4)cc3)CC2)C1 [Navitoclax] (partner 0.5 µM)
In short: as §1

[3] = compound: C1/C(=C\C2=CC=CS2)/C(=O)/C(=C/C3=CC=CS3)/C1 + CC(=O)c1c(C)c2cnc(Nc3ccc(N4CCNCC4)cn3)nc2n(C2CCCC2)c1=O [Palbociclib] (partner 0.5 µM)
In short: as §1

[4] = compound: C[C@]12O[C@H](C[C@]1(O)CO)n1c3ccccc3c3c4c(c5c6ccccc6n2c5c31)CNC4=O [Lestaurtinib] + C[C@]1(O)C[C@@H](c2nc(-c3ccc4ccc(-c5ccccc5)nc4c3)c3c(N)nccn32)C1 [Linsitinib] (partner 1 µM)
In short: as §1

Row | Cell Line | relative viability ([1]; first compound 0.2 µM) | relative viability ([1]; first compound 0.6325 µM) | relative viability ([1]; first compound 2 µM) | relative viability ([1]; first compound 6.325 µM) | relative viability ([1]; first compound 20 µM) | relative viability ([2]; first compound 0.005 µM) | relative viability ([2]; first compound 0.01581 µM) | relative viability ([2]; first compound 0.05 µM) | relative viability ([2]; first compound 0.1581 µM) | relative viability ([2]; first compound 0.5 µM) | relative viability ([3]; first compound 0.2 µM) | relative viability ([3]; first compound 0.6325 µM) | relative viability ([3]; first compound 2 µM) | relative viability ([3]; first compound 6.325 µM) | relative viability ([3]; first compound 20 µM) | relative viability ([4]; first compound 0.005 µM) | relative viability ([4]; first compound 0.01581 µM) | relative viability ([4]; first compound 0.05 µM) | relative viability ([4]; first compound 0.1581 µM) | relative viability ([4]; first compound 0.5 µM)
1 | SK-MES-1 | 0.282 | 0.355 | 0.391 | 0.268 | 0.382 | 1.35 | 1.25 | 0.59 | 0.354 | 0.343 | 0.347 | 0.321 | 0.329 | 0.311 | 0.292 | 1.04 | 1.06 | 0.501 | 0.485 | 0.317
2 | NCI-H1793 | 0.409 | 0.202 | 0.291 | 0.31 | 0.352 | 0.504 | 0.745 | 0.393 | 0.334 | 0.232 | 0.343 | 0.368 | 0.351 | 0.306 | 0.315 | 0.897 | 0.816 | 0.467 | 0.876 | 0.566
3 | NCI-H2405 | 0.491 | 0.386 | 0.572 | 0.452 | 0.416 | 1 | 0.86 | 0.889 | 0.55 | 0.216 | 0.555 | 0.509 | 0.575 | 0.52 | 0.504 | 0.934 | 0.703 | 0.674 | 0.612 | 0.241
4 | NCI-H460 | 0.365 | 0.279 | 0.453 | 0.303 | 0.346 | 1.37 | 1.01 | 0.694 | 0.894 | 0.544 | 0.201 | 0.174 | 0.224 | 0.244 | 0.146 | 0.24 | 0.433 | 0.17 | 0.262 | 0.0291
5 | NCI-H1755 | 0.475 | 0.436 | 0.435 | 0.353 | 0.386 | 1.01 | 0.944 | 0.633 | 0.265 | 0.223 | 0.432 | 0.454 | 0.458 | 0.333 | 0.409 | 1.02 | 1.05 | 0.776 | 0.429 | 0.215
6 | NCI-H1734 | 0.466 | 0.447 | 0.487 | 0.44 | 0.501 | 0.849 | 0.957 | 0.657 | 0.512 | 0.159 | 0.386 | 0.336 | 0.346 | 0.225 | 0.359 | 0.95 | 0.849 | 0.477 | 0.545 | 0.342
7 | EPLC-272H | 0.33 | 0.315 | 0.396 | 0.39 | 0.306 | 1.29 | 0.924 | 0.6 | 0.643 | 0.689 | 0.326 | 0.327 | 0.356 | 0.213 | 0.345 | 1.13 | 1.05 | 0.517 | 0.54 | 0.577
8 | NCI-H2126 | 0.511 | 0.477 | 0.505 | 0.485 | 0.488 | 0.924 | 0.914 | 0.854 | 0.632 | 0.75 | 0.343 | 0.339 | 0.363 | 0.332 | 0.374 | 0.725 | 0.735 | 0.573 | 0.605 | 0.585
